Like-named read-outs stand apart in the source and are kept apart here. Marks after values point to notes of the source that are not given here.
What was measured:
cPLA2 [1] = assay type: cell-based, mouse; conditions: for decrease in cPLA2 level: compared to LPS-exposed cells
cPLA2 [2] = assay: biochemical; parameters: species or system bee
Target sequence in this assay (P00630 34-167 limits assumed): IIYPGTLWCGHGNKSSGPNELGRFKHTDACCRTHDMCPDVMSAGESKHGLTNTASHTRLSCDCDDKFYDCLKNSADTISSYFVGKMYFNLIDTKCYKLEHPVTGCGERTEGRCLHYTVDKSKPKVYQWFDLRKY

sPLA2 [3] = assay: sPLA2 enzyme inhibition assay (Cayman Chemical kit); assay type: biochemical; conditions: mean ± SD; tested 0–17.5 µM
Experimental: The sPLA2 screening assay was carried out according to the manufacturer’s protocol (Cayman Chemical). Briefly, 10 μL of sPLA2 was mixed with 10 μL of dimethyl sulfoxide. In a separate experiment, 10 µL of sPLA2 was added to 10 µL standard sPLA2 inhibitor (thioetheramide, 12.5 µM) and 200 µL substrate solution (diheptanoyl thiol). […] In a separate experiment, 10 μL of assay buffer was mixed with 10 μL of dimethyl sulfoxide and 200 µL of substrate solution. The reaction was initiated by the addition 10 µL of DTNB to all samples. The plate was carefully vortexed for 10 s, then covered with a plate cover and incubated for 15 min at 25 °C. Absorbance was recorded at […] using a plate reader and the IC50 was determined for the synthesized compounds (4–6 and 12) as well as the standard drugs.

TNF-α = assay type: cell-based, mouse; conditions: for decrease in TNF-α level: compared to LPS-exposed cells
NO = assay type: cell-based, mouse; conditions: for decrease in NO level: compared to LPS-exposed cells
IL-8 = IL-8 level in LPS-treated isolated lung cells (ELISA); assay type: cell-based, mouse; conditions: for decrease in IL-8 level: compared to LPS-exposed cells
sPLA2 [4] = assay type: cell-based, mouse; conditions: for decrease in sPLA2 level: compared to LPS-exposed cells
SARS-CoV-2 main protease = SARS-CoV-2 main protease (Severe acute respiratory syndrome coronavirus 2, UniProt P0DTD1); assay: biochemical; conditions: mean ± SD; tested 0–17.5 µM
cPLA2 (bee venom PLA2) = cPLA2 (bee venom PLA2) (Apis mellifera, UniProt P00630); assay: biochemical
Chain of cPLA2 (bee venom PLA2) (P00630 34-167 limits assumed): as above

[5] = LPS 1 μg/mL + higher dose: 4 2.84, 5 3.68, 6 1.18, 12 5.47, baicalein 3.88, ivermectin 149.39 µM
[6] = LPS 1 μg/mL + lower dose: 4 1.44, 5 2.08, 6 0.5, 12 2.39, baicalein 0.89, ivermectin 131.01 µM
[7] = higher dose: 4 2.84, 5 3.68, 6 1.18, 12 5.47, baicalein 3.88, ivermectin 149.39 µM
[8] = lower dose: 4 1.44, 5 2.08, 6 0.5, 12 2.39, baicalein 0.89, ivermectin 131.01 µM

Row | Compound | cPLA2 level (cPLA2 [1]; [5]) | cPLA2 level (cPLA2 [1]; [6]) | decrease in cPLA2 level (cPLA2 [1]; [7]) [%] | decrease in cPLA2 level (cPLA2 [1]; [8]) [%] | IC50 (sPLA2 [3]) [µM] | TNF-α level (TNF-α; [5]) | TNF-α level (TNF-α; [6]) | decrease in TNF-α level (TNF-α; [7]) [%] | decrease in TNF-α level (TNF-α; [8]) [%] | NO level (NO; [5]) | NO level (NO; [6]) | decrease in NO level (NO; [7]) [%] | decrease in NO level (NO; [8]) [%] | IL-8 level (IL-8; [5]) | IL-8 level (IL-8; [6]) | decrease in IL-8 level (IL-8; [7]) [%] | decrease in IL-8 level (IL-8; [8]) [%] | sPLA2 level (sPLA2 [4]; [5]) | sPLA2 level (sPLA2 [4]; [6]) | decrease in sPLA2 level (sPLA2 [4]; [7]) [%] | further results
1 | O=c1cc(-c2ccccc2)oc2cc(O)c(O)c(O)c12 [Baicalein, reference compound] | 616.34 ± 28.34 ^c dpm/mL | 903.43 ± 35.71 ^g dpm/mL | 78.13 | 67.33 | 0.89 ± 0.041 | 431.21 ± 32.88 ^c pg/mL | 639.55 ± 37.84 ^g pg/mL | 56.01 | 34.76 | 20.53 ± 1.89 ^c µmol/L | 32.01 ± 4.81 ^f µmol/L | 70.07 | 53.33 | 1.42 ± 0.13 ^c ng/mL | 2.06 ± 0.23 ^g ng/mL | 75.26 | 64.11 | 24.77 ± 2.73 ^c pg/mL | 54.27 ± 3.46 ^h pg/mL | 80.88 | IC50 (cPLA2 [2]): 3.88 ± 0.013 µM; decrease in sPLA2 level (sPLA2 [4]; [8]): 58.11%
2 | Cc1ccnc(NS(=O)(=O)c2ccc(Nc3nc4ccccc4c(=O)n3N)cc2)n1 [Compound 4] | 671.05 ± 29.17 ^d dpm/mL | 1077.77 ± 68.61 ^i dpm/mL | 76.19 | 61.75 | 2.84 ± 0.026 | 481.36 ± 39.63 ^d pg/mL | 654.20 ± 22.28 ^h pg/mL | 50.90 | 33.36 | 25.18 ± 2.98 ^d µmol/L | 37.27 ± 3.00 ^c µmol/L | 63.29 | 45.66 | 2.17 ± 0.07 ^d ng/mL | 2.55 ± 0.26 ^c ng/mL | 62.20 | 55.57 | 29.10 ± 2.52 ^d pg/mL | 57.93 ± 2.92 ^i pg/mL | 77.54 | IC50 (SARS-CoV-2 main protease): 2.012 ± 0.004 µM; IC50 (cPLA2 [2]): 1.44 ± 0.009 µM; decrease in sPLA2 level (sPLA2 [4]; [8]): 55.29%
3 | COc1cc(C=Nn2c(Nc3ccc(S(=O)(=O)Nc4nccc(C)n4)cc3)nc3ccccc3c2=O)ccc1O [Compound 5] | 719.32 ± 37.15 ^e dpm/mL | 1258.99 ± 35.57 ^k dpm/mL | 74.48 | 55.32 | 2.73 ± 0.008 | 524.98 ± 19.11 ^e pg/mL | 671.91 ± 23.11 ^i pg/mL | 46.44 | 31.26 | 29.37 ± 2.21 ^f µmol/L | 45.75 ± 2.87 ^g µmol/L | 57.18 | 33.29 | 2.40 ±0.09 ^e ng/mL | 2.74 ± 0.32 ^c ng/mL | 58.19 | 52.26 | 34.17 ± 1.73 ^e pg/mL | 72.13 ± 3.94 ^k pg/mL | 73.63 | IC50 (SARS-CoV-2 main protease): 3.68 ± 2.35 µM; IC50 (cPLA2 [2]): 2.08 ± 0.016 µM; decrease in sPLA2 level (sPLA2 [4]; [8]): 44.33%
4 | Cc1ccnc(NS(=O)(=O)c2ccc(N3CC(=O)Nn4c3nc3ccccc3c4=O)cc2)n1 [Compound 6] | 536.93 ± 23.50 ^b dpm/mL | 830.11 ± 34.00 ^f dpm/mL | 80.94 | 70.54 | 1.02 ± 0.039 | 424.25 ± 36.86 ^f pg/mL | 582.31 ± 52.25 ^e pg/mL | 56.72 | 40.59 | 19.02 ± 1.5 ^b µmol/L | 24.67 ± 2.70 ^e µmol/L | 72.27 | 64.03 | 1.17 ± 0.06 ^b ng/mL | 1.79 ± 0.14 ^d ng/mL | 79.62 | 68.82 | 18.29 ± 2.35 ^b pg/mL | 43.44 ± 2.74 ^g pg/mL | 85.88 | IC50 (SARS-CoV-2 main protease): 1.18 ± 0.025 µM; IC50 (cPLA2 [2]): 0.5 ± 0.008 µM; decrease in sPLA2 level (sPLA2 [4]; [8]): 66.47%
5 | CCOC(=O)c1nn2c(=O)c3ccccc3nc2n1-c1ccc(S(=O)(=O)Nc2nccc(C)n2)cc1 [Compound 12] | 722.24 ± 30.40 ^e dpm/mL | 1348.21 ± 50.26 dpm/mL | 74.37 | 52.15 | 4.45 ± 0.007 | 551.52 ± 24.65 ^f pg/mL | 748.98 ± 31.22 ^j pg/mL | 43.75 | 23.59 | 30.94 ± 3.76 ^f µmol/L | 50.36 ± 3.96 ^h µmol/L | 54.89 | 26.57 | 3.21 ± 0.21 ^f ng/mL | 3.84 ± 0.29 ^g ng/mL | 44.08 | 33.10 | 40.61 ± 4.19 ^f pg/mL | 85.23 ± 6.51 ^l pg/mL | 68.66 | IC50 (SARS-CoV-2 main protease): 5.47 ± 0.018 µM; IC50 (cPLA2 [2]): 2.39 ± 0.046 µM; decrease in sPLA2 level (sPLA2 [4]; [8]): 34.22%
6 | Ivermectin [reference compound] | 1002.65 ± 90.98 ^h dpm/mL | 1172.50 ± 72.55 ^j dpm/mL | 64.41 | 58.39 | 110 ± 3.27 | 714.29 ± 28.09 ^g pg/mL | 870.22 ± 40.62 ^k pg/mL | 27.13 | 11.23 | 50.74 ± 3.34 ^h µmol/L | 62.01 ± 4.81 ^i µmol/L | 26.02 | 9.59 | 3.10 ± 0.1 ^f ng/mL | 3.77 ± 0.62 ^g ng/mL | 45.99 | 34.32 | 62.31 ± 1.41 ^j pg/mL | 106.13 ± 9.81 ^m pg/mL | 51.41 | IC50 (SARS-CoV-2 main protease): 42.4 ± 2.5 µM; IC50 (cPLA2 (bee venom PLA2)): 138 ± 1.54 µM; decrease in sPLA2 level (sPLA2 [4]; [8]): 18.09%
